We go through 14 compounds from patent publication US20240109873A1, “ANTAGONISTS OF THE MUSCARINIC ACETYLCHOLINE RECEPTOR M4” (Vanderbilt University, priority 2020, published 2024).

The assay addresses T1, human mAChR M4 (Homo sapiens, UniProt P08173).
T1 construct: expressed in transfected cells; host or cells: CHO-K1 (ATCC), co-transfected with chimeric G protein Gqi5
T1 sequence (P08173 1-479): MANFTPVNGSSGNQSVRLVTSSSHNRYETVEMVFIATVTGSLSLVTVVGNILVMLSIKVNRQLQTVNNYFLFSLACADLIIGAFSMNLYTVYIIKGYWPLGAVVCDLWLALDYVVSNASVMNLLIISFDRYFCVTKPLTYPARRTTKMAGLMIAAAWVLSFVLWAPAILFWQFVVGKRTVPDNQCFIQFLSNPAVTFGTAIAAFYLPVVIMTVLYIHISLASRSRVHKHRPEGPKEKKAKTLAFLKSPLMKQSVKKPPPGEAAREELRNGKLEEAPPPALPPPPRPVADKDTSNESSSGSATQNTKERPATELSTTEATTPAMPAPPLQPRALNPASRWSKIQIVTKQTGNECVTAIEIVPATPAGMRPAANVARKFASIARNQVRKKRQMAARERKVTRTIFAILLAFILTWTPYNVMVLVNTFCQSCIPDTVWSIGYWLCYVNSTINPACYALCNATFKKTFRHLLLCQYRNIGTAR
The assay can be described thus: mAChR M4 cell-based functional assay (calcium flux, antagonism of EC80 acetylcholine response, M4/Gqi5/CHO-K1 cells). Particulars: for remaining activity at 30 µM: CHO-K1, % ACh maximum at 30 μM, read-out: Human M4 Emin; for IC50: decrease of the response elicited by an EC80 concentration of acetylcholine, CHO-K1 cells, Gqi5. As to the method:
Human or rat M4 cDNA, along with the chimeric G protein Gqi5, were transfected into Chinese hamster ovary (CHO-K1) cells purchased from the American Type Culture Collection using Lipofectamine2000. M4/Gqi5/CHO cells were grown in Ham's F-12 medium containing 10% heat-inactivated fetal bovine serum (FBS), 20 mM HEPES, 500 μg/mL G418 sulfate, and 200 μg/mL Hygromycin B.
For high throughput measurement of agonist-evoked increases in intracellular calcium, CHO-K1 cells stably expressing muscarinic receptors were plated in growth medium lacking G418 and hygromycin at 15,000 cells/20 μL/well in Greiner 384-well black-walled, tissue culture (TC)-treated, clear-bottom plates (VWR). Cells were incubated overnight at 37° C. and 5% CO2. The next day, cells were washed using an ELX 405 (BioTek) with assay buffer; the final volume was then aspirated to 20 μL. Next, 20 μL of a 2.3 μM stock of Fluo-4/acetoxymethyl ester (Invitrogen, Carlsbad, CA), prepared as a 2.3 mM stock in DMSO and mixed in a 1:1 ratio with 10% (w/v) Pluronic F-127 and diluted in assay buffer, was added to the wells and the cell plates were incubated for 50 min at 37° C. and 5% CO2. Dye was removed by washing with the ELX 405 and the final volume was aspirated to 20 μL. Compound master plates were formatted in a 10-point concentration-response curve (CRC) format (1:3 dilutions) in 100% DMSO with a starting concentration of 10 or 1 mM using a BRAVO liquid handler (Agilent). Test compound CRCs were then transferred to daughter plates (240 nL) using the Echo acoustic plate reformatter (Labcyte, Sunnyvale, CA) and then diluted into assay buffer (40 μL) to a 2× stock using a Thermo Fisher Combi (Thermo Fisher Scientific, Waltham, MA).
Calcium flux was measured using the Functional Drug Screening System (FDSS) 6000 or 7000 (Hamamatsu Corporation, Tokyo, Japan) as an increase in the fluorescent static ratio. Compounds were applied to cells (20 μL, 2×) using the automated system of the FDSS at 2 seconds into the protocol and the data were collected at 1 Hz. At 143 s, 10 μL of an EC20 concentration of the muscarinic receptor agonist acetylcholine was added (5×), followed by the addition of 12 μL of an EC80 concentration of acetylcholine at the 268 s time point (5×). Agonist activity was analyzed as a concentration-dependent increase in calcium mobilization upon compound addition. Positive allosteric modulator activity was analyzed as a concentration-dependent increase in the EC20 acetylcholine response. Antagonist activity was analyzed as a concentration-dependent decrease in the EC80 acetylcholine response; for the purposes of the tables herein, an IC50 (inhibitory concentration 50) was calculated as a concentration-dependent decrease of the response elicited by an EC80 concentration of acetylcholine. Concentration-response curves were generated using a four-parameter logistical equation in XLFit curve fitting software (IDBS, Bridgewater, NJ) for Excel (Microsoft, Redmond, WA) or Prism (GraphPad Software, Inc., San Diego, CA) or the Dotmatics software platform (Dotmatics, Bishop's Stortford, UK). […]
Compounds were synthesized as described above. Activity (IC50 and Emin) was determined in the mAChR M4 cell-based functional assay as described above and the data are shown in Table 2.

By IC50 is commonly meant the concentration that inhibits the measured activity by half. As to `FC(F)(F)c1ccncc1-c1ccc(N[C@H]2C[C@@H]3CN(CC4CCOCC4)C[C@@H]3C2)nn1` [Compound 1, (3aR,5s,6aS)-2-((tetrahydro-2H-pyran-4-yl)methyl)-N-(6-(4-(trifluoromethyl)pyridin-3-yl)pyridazin-3-yl)octahydrocyclopenta[c]pyrrol-5-amine], the remaining activity at 30 µM was 4% and the IC50 turned out to be 0.28 nM.
For `[2H]C([2H])(C1CCOCC1)N1C[C@H]2C[C@H](Nc3nnc(-c4cnccc4C(F)(F)F)cc3C3CC3)C[C@H]2C1` [Compound 14, (3aR,5s,6aS)-N-(4-cyclopropyl-6-(4-(trifluoromethyl)pyridin-3-yl)pyridazin-3-yl)-2-((tetrahydro-2H-pyran-4-yl)methyl-d2)octahydrocyclopenta[c]pyrrol-5-amine] the same measures were 4% and 3.1 nM.
For `[2H]C1([2H])CC(CN2C[C@H]3C[C@H](Nc4nnc(-c5cnccc5C(F)(F)F)cc4OC)C[C@H]3C2)CC([2H])([2H])O1` [Compound 23, (3aR,5s,6aS)-N-(4-methoxy-6-(4-(trifluoromethyl)pyridin-3-yl)pyridazin-3-yl)-2-((tetrahydro-2H-pyran-4-yl-2,2,6,6-d4)methyl)octahydrocyclopenta[c]pyrrol-5-amine], the remaining activity at 30 µM stood at 2% and the IC50 was 3.9 nM.
For `[2H]C([2H])(CC1CCOCC1)N1C[C@H]2C[C@H](Nc3ccc(-c4cnccc4C(F)(F)F)nn3)C[C@H]2C1` [Compound 31, (3aR,5s,6aS)-2-(2-(tetrahydro-2H-pyran-4-yl)ethyl-1,1-d2)-N-(6-(4-(trifluoromethyl)pyridin-3-yl)pyridazin-3-yl)octahydrocyclopenta[c]pyrrol-5-amine] the same measures were 5% and 0.8 nM.
The matching figures for `[2H]C1([2H])CC(C([2H])([2H])N2C[C@H]3C[C@H](Nc4ccc(-c5cccnc5C(F)(F)F)nn4)C[C@@]3(C)C2)CC([2H])([2H])O1` (racemic) [Compound 57, (3aR,5S,6aS)-3a-methyl-2-((tetrahydro-2H-pyran-4-yl-2,2,6,6-d4)methyl-d2)-N-(6-(2-(trifluoromethyl)pyridin-3-yl)pyridazin-3-yl)octahydrocyclopenta[c]pyrrol-5-amine and (3aS,5R,6aR)-3a-methyl-2-((tetrahydro-2H-pyran-4-yl-2,2,6,6-d4)methyl-d2)-N-(6-(2-(trifluoromethyl)pyridin-3-yl)pyridazin-3-yl)octahydrocyclopenta[c]pyrrol-5-amine]: 3% and 1.5 nM.
The matching figures for `[2H]C([2H])(C1CCOCC1)N1C[C@H]2C[C@H](Nc3nnc(-c4cccnc4C(F)(F)F)cc3C)C[C@H]2C1` [Compound 50, (3aR,5s,6aS)-N-(4-methyl-6-(2-(trifluoromethyl)pyridin-3-yl)pyridazin-3-yl)-2-((tetrahydro-2H-pyran-4-yl)methyl-d2)octahydrocyclopenta[c]pyrrol-5-amine]: 1% and 0.88 nM.
As to `[2H]C([2H])(C1CCOC(C)(C)C1)N1C[C@H]2C[C@H](Nc3ccc(-c4cnccc4C(F)(F)F)nn3)C[C@H]2C1` (stereo partly drawn) [Compound 33, (3aR,5s,6aS)-2-((2,2-dimethyltetrahydro-2H-pyran-4-yl)methyl-d2)-N-(6-(4-(trifluoromethyl)pyridin-3-yl)pyridazin-3-yl)octahydrocyclopenta[c]pyrrol-5-amine], the IC50 was 4.2 nM. Besides, under “% ACh maximum at 30 μM”, the “Human M4 Emin” value turned out to be 7%.
As to `[2H]C([2H])([C@@H]1CCCCO1)N1C[C@H]2C[C@H](Nc3ccc(-c4cccnc4C(F)(F)F)nn3)C[C@H]2C1` [Compound 48, (3aR,5s,6aS)-2-(((S)-tetrahydro-2H-pyran-2-yl)methyl-d2)-N-(6-(2-(trifluoromethyl)pyridin-3-yl)pyridazin-3-yl)octahydrocyclopenta[c]pyrrol-5-amine], the remaining activity at 30 µM worked out at 2% and the IC50 was determined as 0.87 nM.
The matching figures for `[2H]C([2H])(C1CCOC2(CCC2)C1)N1C[C@H]2C[C@H](Nc3ccc(-c4cccnc4C(F)(F)F)nn3)C[C@H]2C1` (stereo partly drawn) [Compound 60, (3aR,5s,6aS)-2-((5-oxaspiro[3.5]nonan-8-yl)methyl-d2)-N-(6-(2-(trifluoromethyl)pyridin-3-yl)pyridazin-3-yl)octahydrocyclopenta[c]pyrrol-5-amine]: 4% and 1.4 nM.
The matching figures for `[2H]C([2H])(C1CC(C)(C)OC(C)(C)C1)N1C[C@H]2C[C@H](Nc3ccc(-c4cccnc4C(F)(F)F)nn3)C[C@H]2C1` [Compound 45, (3aR,5s,6aS)-2-((2,2,6,6-tetramethyltetrahydro-2H-pyran-4-yl)methyl-d2)-N-(6-(2-(trifluoromethyl)pyridin-3-yl)pyridazin-3-yl)octahydrocyclopenta[c]pyrrol-5-amine]: 2% and 14.7 nM.
In the case of `[2H]C([2H])(C1CCOCC1(C)C)N1C[C@H]2C[C@H](Nc3nnc(-c4cnccc4C(F)(F)F)cc3C)C[C@H]2C1` (stereo partly drawn) [Compound 20, (3aR,5s,6aS)-2-((3,3-dimethyltetrahydro-2H-pyran-4-yl)methyl-d2)-N-(4-methyl-6-(4-(trifluoromethyl)pyridin-3-yl)pyridazin-3-yl)octahydrocyclopenta[c]pyrrol-5-amine], the remaining activity at 30 µM was 2% and the IC50 was 6.4 nM.
Regarding `[2H]C([2H])(C1CCOCC1)N1C[C@H]2C[C@H](Nc3nnc(-c4cnccc4C(F)(F)F)c4ccsc34)C[C@H]2C1` [Compound 35, N-((3aR,5s,6aS)-2-((tetrahydro-2H-pyran-4-yl)methyl-d2)octahydrocyclopenta[c]pyrrol-5-yl)-4-(4-(trifluoromethyl)pyridin-3-yl)thieno[2,3-d]pyridazin-7-amine], the remaining activity at 30 µM is 4% and the IC50 was 0.52 nM.
The matching figures for `FC(F)(F)c1ncccc1-c1ccc(N[C@H]2C[C@@H]3CN(CC4CCOCC4)C[C@@H]3C2)nn1` [Compound 40, (3aR,5s,6aS)-2-((tetrahydro-2H-pyran-4-yl)methyl)-N-(6-(2-(trifluoromethyl)pyridin-3-yl)pyridazin-3-yl)octahydrocyclopenta[c]pyrrol-5-amine]: 3% and 0.74 nM.
The matching figures for `[2H]C([2H])(C1CCOCC1)N1C[C@H]2C[C@H](Nc3nnc(-c4cnccc4C(F)(F)F)cc3C(F)F)C[C@H]2C1` [Compound 26, (3aR,5s,6aS)-N-(4-(difluoromethyl)-6-(4-(trifluoromethyl)pyridin-3-yl)pyridazin-3-yl)-2-((tetrahydro-2H-pyran-4-yl)methyl-d2)octahydrocyclopenta[c]pyrrol-5-amine]: 6% and 1.3 nM.
